The values that follow come from US20150307841A1, “Composition for Promoting Differentiation and Proliferation of Neural Stem Cell and Neural Precursor Cell” (priority 2014, published 2015).

SMILES strings stand for the structures.

Type in all cases: in vivo, rat
Assay [1] deals with newly born neural precursor cells in hippocampal tissue slices. Nature of the assay: Immunohistochemical analysis of BrdU and subtype markers 4 weeks after oral administration (Experimental Example 2). The arrangement: Number of BrdU-positive cells and newly born dentate granular cells (DGCs) versus IBO group / Number of cells expressing both NeuN and BrdU versus ibotenic acid-administered group / Cholinergic neurons (total endogenous ChAT-positive cells) at 4 weeks versus 1 week after oral administration: dose or concentration left out as unconfirmed. From the text: In order to confirm the survival and differentiation of newly born neural precursor cells 4 weeks after the oral administration of soyasaponin I, it was observed whether the BrdU-expressing cells express a mature neuron marker and cell subtype markers (NeuN, VGluT1, GAD67) simultaneously.
After conducting the 3 behavioral tests, the rats were sacrificed for immunohistochemical analysis. Over 5 animals from each group were used for the immunohistochemical analysis.
Following the same procedure as described in (4) of Experimental Example 2, incubation was performed at 37° C. for 30 minutes in 2 N HCl after permeabilization in 0.5% Triton X-100 for 20 minutes for double staining of BrdU/subtype cell markers ([…], VGluT1, NeuN).
In the immunohistochemical analysis, the number of the cells immnunostained against each antibody was counted from 5 or 6 hippocampal coronal sections. For each staining analysis, every fifth cryosections of the hippocampal region of brain tissues (AP: bregma −4.5 to −4.3 mm) were taken for immunostaining. The number of the immnunostained cells was represented as an average of number of cells in the hippocampal region of one brain slice.
The number of the VGluT1- and GAD-positive cells in the brain slice samples 1 week and 4 weeks after the administration of soyasaponin I was presented per microscopic field (×400-VGluT1, ×800-GAD67) and the number of the ChAT-positive cells was presented per each hippocampal region (10-12 confocal laser microscopic fields). 5-11 animals were used per group. Western blotted membranes were analyzed using the multi-gauge, bio-imaging program on LAS-4000 Mini (Fujifilm Life Science, Stamford, Conn., USA). Densitometeric analysis of the expression ratios of VGluT1/β-actin, GAD65/67/β-actin and ChAT/β-actin was normalized to the vehicle group.

Assay [2] concerns memory-deficient model rats. Nature of the assay: Morris water maze test in memory-deficient model rats. The settings on record: Experimental Example 2. The text has this: (§1) Ibotenic acid is a neurotoxin present in mushrooms and is known to cause powerful damage to neurons when directly injected into the brain of mice or rats. In particular, because senile plaques and neuronal cell death appear in the entorhinal cortex and hippocampus in early Alzheimer's disease patients (Ueki A et al. J Neurol Sci, 1994), memory-deficient model rats were generated by injecting ibotenic acid (IBO) into the entorhinal cortex. The surgical protocol followed Heo H et al.'s method (J Ethnopharmacol, 2009) with some modifications. In the model animals, the injection of ibotenic acid induces cell death not only in the entorhinal cortex but also in the CA and DG regions of the hippocampus and impairs hippocampus-related learning and memory abilities.
The 6-week-old rats were anesthetized with equithesin (350 mM pentobarbital sodium, 250 mM chloral hydrate, 85 mM MgSO4 and 40% propylene glycol in 10% ethanol, 2 mL/kg). To induce cell death in the dentate gyrus and hippocampus in addition to the entorhinal cortex, ibotenic acid (1.5 μL per animal, 1 mg/mL) was injected into the entorhinal cortex as follows. The rat was placed in a stereotaxic device (Stoelting Co., Wood Dale, Ill., USA) with the incisor bar 3.4 mm below the interaural line. The needle was positioned 10° right to the midsaggital plane. […]
For each trial, the rat was allowed to swim for a maximum of 60 seconds to find the platform and to rest for 1 minute on the platform upon success. […] The swimming time and length of the trial were recorded and monitored using a video camera. […] The captured video images were analyzed by a video tracking system (EthoVision Water Maze program, Noldus Information Technology, Wageningen, the Netherlands). The analyzed information included the swimming time in the target quadrant and the number of virtual platform crossings to find the removed platform. […]

Assay [3] relates to memory-deficient model rats. Kind of assay: Passive avoidance test in memory-deficient model rats.
Description: as §1
The 6-week-old rats were anesthetized with equithesin (350 mM pentobarbital sodium, 250 mM chloral hydrate, 85 mM MgSO4 and 40% propylene glycol in 10% ethanol, 2 mL/kg). […]
The passive avoidance was carried out as described in Heo H et al. (J Ethnopharmacol, 2009), with the same number of animals per group as the Y-maze test. […] Exactly 24 hours after the acquisition trial, the rats were placed in the lighted chamber again and the latency time to enter the dark chamber was measured for 720 seconds (retention trial). […]

Where [4] appears, read: 4 weeks after oral administration.
The mark [5] stands for this setting: soyasaponin I 10 mg/g group (so in the source), 4 weeks after oral administration.
The mark [6] stands for this setting: soyasaponin I group (so in the source), 4 weeks after oral administration.

`C[C@@H]1O[C@@H](O[C@H]2[C@H](O[C@H]3[C@H](O[C@H]4CC[C@@]5(C)[C@@H](CC[C@]6(C)[C@@H]5CC=C5[C@@H]7CC(C)(C)C[C@@H](O)[C@]7(C)CC[C@]56C)[C@@]4(C)CO)O[C@H](C(=O)O)[C@@H](O)[C@@H]3O)O[C@H](CO)[C@H](O)[C@@H]2O)[C@H](O)[C@H](O)[C@H]1O` [soyasaponin I]: in assay [1] (setting [4]), the “Number of BrdU-positive cells in hippocampal tissue slices at 4 weeks versus 1 week after oral administration” value was “reduced to less than half” and the “Ratio of the BrdU-positive cells that express VGluT1, NeuN or GAD67 at the same time” value was “no significant difference”. Moreover, the “BrdU-positive cells among hippocampal cells expressing GFAP, TH and ChAT” value in assay [1] (4 weeks after oral administration, any group) is given as “barely detected”. Moreover, in assay [1] (setting [5]), the “Number of BrdU-positive cells expressing GAD67 versus IBO group” value is 2.8 times and the “Number of BrdU-positive cells expressing VGluT1 versus IBO group” value is given as “higher”. The “Cholinergic neurons (total endogenous ChAT-positive cells) at 4 weeks versus 1 week after oral administration” value in assay [1] (soyasaponin I group (so in the source)) is reported as “maintained at a similar level”. Moreover, in assay [1] (setting [6]), the “Number of BrdU-positive cells and newly born dentate granular cells (DGCs) versus IBO group” value is given as “approximately 3.5 fold”; the “Number of cells expressing both NeuN and BrdU versus ibotenic acid-administered group” value came to 3 times. In addition, in assay [2] (probe trial session), the “Morris water maze number of crossings across the target probe” value is on record as “recovery to almost those of the normal group” and the “Morris water maze swimming time in the target quadrant” value was “recovery to almost those of the normal group”. The “Morris water maze escape latency time compared to the ibotenic acid-administered group” value in assay [2] (training trial, third and fourth days) is listed as “decreased”. Moreover, the “Passive avoidance latency time, relative to that of the normal group” value in assay [3] (10 mg/kg oral, tests 2 weeks after administration (Experimental Example 2)) is 89.65%. The “Passive avoidance latency time” value in assay [3] (Experimental Example 1, retention trial 24 hours after shock) is recorded as “improvement in latency time”.
